Experimental data taken from ChEMBL document CHEMBL1201862, “PubChem BioAssay data set” (2004).
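Following 48 hours of exposure in 96-well plates, responses at five concentrations were used to interpolate endpoints linearly. At the GI50, growth is halved.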 Activity calls are given as the source filed them. Rule as the data show it: active = GI50 up to about 1.1 µM and inactive = higher.

Experiments:
Assay in all cases: NCI tumour cell line growth inhibition, 48 h
786-0 = system: 786-0
A549 = system: A549
ACHN = system: ACHN
BT-549 = system: BT-549
CAKI-1 = system: CAKI-1
CCRF-CEM = system: CCRF-CEM
COLO 205 = system: COLO 205
DU-145 = system: DU-145
EKVX = system: EKVX
HCC 2998 = system: HCC 2998
HCT-116 = system: HCT-116
HCT-15 = system: HCT-15
HL-60 = system: HL-60
HOP-62 = system: HOP-62
HOP-92 = system: HOP-92
HT-29 = system: HT-29
IGROV-1 = system: IGROV-1
K562 = system: K562
KM12 = system: KM12
M14 = system: M14
MCF7 = system: MCF7
MDA-N = system: MDA-N
MOLT-4 = system: MOLT-4
Malme-3M = system: Malme-3M
NCI-H226 = system: NCI-H226
NCI-H23 = system: NCI-H23
NCI-H460 = system: NCI-H460
NCI-H522 = system: NCI-H522
NCI/ADR-RES = system: NCI/ADR-RES
OVCAR-3 = system: OVCAR-3
OVCAR-4 = system: OVCAR-4
OVCAR-5 = system: OVCAR-5
OVCAR-8 = system: OVCAR-8
PC-3 = system: PC-3
RPMI-8226 = system: RPMI-8226
RXF 393 = system: RXF 393
SF-268 = system: SF-268
SF-295 = system: SF-295
SF-539 = system: SF-539
SK-MEL-28 = system: SK-MEL-28
SK-MEL-2 = system: SK-MEL-2
SK-MEL-5 = system: SK-MEL-5
SK-OV-3 = system: SK-OV-3
SN12C = system: SN12C
SNB-19 = system: SNB-19
SNB-75 = system: SNB-75
SR = system: SR
SW-620 = system: SW-620
TK-10 = system: TK-10
U-251 = system: U-251
UACC-257 = system: UACC-257
UACC-62 = system: UACC-62
UO-31 = system: UO-31
A498 = system: A498
LOX IMVI = system: LOX IMVI
MDA-MB-231 = system: MDA-MB-231
T47D = system: T47D
MDA-MB-435 = system: MDA-MB-435

O=C(N/N=C/c1ccccc1)c1c(-c2cccnc2)cnc2ccccc12
GI50 (786-0): > 100 µM (inactive)
GI50 (A549): > 100 µM (inactive)
GI50 (ACHN): > 100 µM (inactive)
GI50 (BT-549): 79.4 µM (inactive)
GI50 (CAKI-1): > 100 µM (inactive)
GI50 (CCRF-CEM): > 100 µM (inactive)
GI50 (COLO 205): > 100 µM (inactive)
GI50 (DU-145): > 100 µM (inactive)
GI50 (EKVX): > 100 µM (inactive)
GI50 (HCC 2998): > 100 µM (inactive)
GI50 (HCT-116): 52.5 µM (inactive)
GI50 (HCT-15): 48 µM
GI50 (HL-60): 42.9 µM (inactive)
GI50 (HOP-62): 87.7 µM (inactive)
GI50 (HOP-92): > 100 µM (inactive)
GI50 (HT-29): 42.1 µM (inactive)
GI50 (IGROV-1): 58.7 µM (inactive)
GI50 (K562): 44.9 µM (inactive)
GI50 (KM12): 33 µM (inactive)
GI50 (M14): > 100 µM (inactive)
GI50 (MCF7): 48.2 µM (inactive)
GI50 (MDA-N): 29.2 µM (inactive)
GI50 (MOLT-4): > 100 µM (inactive)
GI50 (Malme-3M): > 100 µM (inactive)
GI50 (NCI-H226): > 100 µM (inactive)
GI50 (NCI-H23): > 100 µM (inactive)
GI50 (NCI-H460): 61.1 µM (inactive)
GI50 (NCI-H522): > 100 µM (inactive)
GI50 (NCI/ADR-RES): 69.5 µM (inactive)
GI50 (OVCAR-3): > 100 µM (inactive)
GI50 (OVCAR-4): > 100 µM (inactive)
GI50 (OVCAR-5): > 100 µM (inactive)
GI50 (OVCAR-8): > 100 µM (inactive)
GI50 (PC-3): > 100 µM (inactive)
GI50 (RPMI-8226): > 100 µM (inactive)
GI50 (RXF 393): > 100 µM (inactive)
GI50 (SF-268): > 100 µM (inactive)
GI50 (SF-295): 12 µM (inactive)
GI50 (SF-539): 70.3 µM (inactive)
GI50 (SK-MEL-28): > 100 µM (inactive)
GI50 (SK-MEL-2): > 100 µM (inactive)
GI50 (SK-MEL-5): 43.7 µM (inactive)
GI50 (SK-OV-3): 84.5 µM (inactive)
GI50 (SN12C): > 100 µM (inactive)
GI50 (SNB-19): > 100 µM (inactive)
GI50 (SNB-75): 34.8 µM (inactive)
GI50 (SR): 77.1 µM (inactive)
GI50 (SW-620): 59.6 µM (inactive)
GI50 (TK-10): > 100 µM (inactive)
GI50 (U-251): 56.4 µM (inactive)
GI50 (UACC-257): 88.9 µM (inactive)
GI50 (UACC-62): 79.8 µM (inactive)
GI50 (UO-31): > 100 µM (inactive)

N#Cc1c(Cl)cccc1Oc1ccc(S(=O)(=O)/N=C(\NN)Nc2ccc(Cl)cc2)cc1
GI50 (786-0): 23.8 µM (inactive)
GI50 (A498): 32.4 µM (inactive)
GI50 (A549): 31.9 µM (inactive)
GI50 (ACHN): 31.9 µM (inactive)
GI50 (BT-549): 25.1 µM (inactive)
GI50 (CAKI-1): 33.3 µM (inactive)
GI50 (COLO 205): 15.6 µM (inactive)
GI50 (DU-145): 25.5 µM (inactive)
GI50 (EKVX): 23.3 µM (inactive)
GI50 (HCT-116): 17.7 µM (inactive)
GI50 (HCT-15): 34.4 µM
GI50 (HL-60): 21.5 µM (inactive)
GI50 (HOP-62): 21.1 µM (inactive)
GI50 (HOP-92): 21.2 µM (inactive)
GI50 (HT-29): 30.3 µM (inactive)
GI50 (IGROV-1): 20.1 µM (inactive)
GI50 (K562): 34.8 µM (inactive)
GI50 (KM12): 19.5 µM (inactive)
GI50 (LOX IMVI): 17.5 µM (inactive)
GI50 (M14): 22.9 µM (inactive)
GI50 (MCF7): 35.7 µM (inactive)
GI50 (MDA-MB-231): 27.4 µM (inactive)
GI50 (MDA-N): 25.5 µM (inactive)
GI50 (MOLT-4): 14.6 µM (inactive)
GI50 (NCI-H226): 17.4 µM (inactive)
GI50 (NCI-H23): 24.3 µM (inactive)
GI50 (NCI-H460): 19.2 µM (inactive)
GI50 (NCI/ADR-RES): 32.9 µM (inactive)
GI50 (OVCAR-3): 19.7 µM (inactive)
GI50 (OVCAR-4): 26.4 µM (inactive)
GI50 (OVCAR-5): 28.5 µM (inactive)
GI50 (OVCAR-8): 31.2 µM (inactive)
GI50 (PC-3): 23.6 µM (inactive)
GI50 (RPMI-8226): 32.5 µM (inactive)
GI50 (RXF 393): 19.1 µM (inactive)
GI50 (SF-268): 22.8 µM (inactive)
GI50 (SF-295): 24.2 µM (inactive)
GI50 (SF-539): 17.7 µM (inactive)
GI50 (SK-MEL-28): 31.8 µM (inactive)
GI50 (SK-MEL-2): 21.6 µM (inactive)
GI50 (SK-MEL-5): 17.1 µM (inactive)
GI50 (SK-OV-3): 32.3 µM (inactive)
GI50 (SN12C): 25.2 µM (inactive)
GI50 (SNB-19): 41.1 µM (inactive)
GI50 (SNB-75): 21.6 µM (inactive)
GI50 (SR): 0.0177 µM (active)
GI50 (SW-620): 41.9 µM (inactive)
GI50 (T47D): 20.1 µM (inactive)
GI50 (TK-10): 26.9 µM (inactive)
GI50 (U-251): 32 µM (inactive)
GI50 (UACC-257): 29.9 µM (inactive)
GI50 (UACC-62): 19.1 µM (inactive)
GI50 (UO-31): 25.5 µM (inactive)

COc1nc2c(c(=O)[nH]1)N=C(c1ccc([N+](=O)[O-])cc1)CC(c1ccccc1)N2 (centres undefined)
GI50 (786-0): > 100 µM (inactive)
GI50 (A498): > 100 µM (inactive)
GI50 (A549): 83.4 µM (inactive)
GI50 (ACHN): 76.4 µM (inactive)
GI50 (BT-549): > 100 µM (inactive)
GI50 (CAKI-1): > 100 µM (inactive)
GI50 (CCRF-CEM): 37.9 µM (inactive)
GI50 (COLO 205): > 100 µM (inactive)
GI50 (DU-145): > 100 µM (inactive)
GI50 (EKVX): 95.9 µM (inactive)
GI50 (HCC 2998): > 100 µM (inactive)
GI50 (HCT-116): 34.5 µM (inactive)
GI50 (HL-60): 16 µM (inactive)
GI50 (HOP-62): > 100 µM (inactive)
GI50 (HOP-92): 84.3 µM (inactive)
GI50 (HT-29): > 100 µM (inactive)
GI50 (IGROV-1): > 100 µM (inactive)
GI50 (K562): 58.2 µM (inactive)
GI50 (KM12): 70.5 µM (inactive)
GI50 (LOX IMVI): 38.4 µM (inactive)
GI50 (M14): > 100 µM (inactive)
GI50 (MCF7): 57.7 µM (inactive)
GI50 (MDA-MB-231): > 100 µM (inactive)
GI50 (MDA-MB-435): > 100 µM (inactive)
GI50 (MDA-N): > 100 µM (inactive)
GI50 (MOLT-4): 54.3 µM (inactive)
GI50 (Malme-3M): > 100 µM (inactive)
GI50 (NCI-H226): > 100 µM (inactive)
GI50 (NCI-H23): 69.8 µM (inactive)
GI50 (NCI-H460): 73.6 µM (inactive)
GI50 (NCI-H522): 66.4 µM (inactive)
GI50 (NCI/ADR-RES): > 100 µM (inactive)
GI50 (OVCAR-3): > 100 µM (inactive)
GI50 (OVCAR-4): 62.8 µM (inactive)
GI50 (OVCAR-5): > 100 µM (inactive)
GI50 (OVCAR-8): > 100 µM (inactive)
GI50 (PC-3): 84.3 µM (inactive)
GI50 (RPMI-8226): 44.1 µM (inactive)
GI50 (RXF 393): 94.6 µM (inactive)
GI50 (SF-295): > 100 µM (inactive)
GI50 (SF-539): > 100 µM (inactive)
GI50 (SK-MEL-28): 94.8 µM (inactive)
GI50 (SK-MEL-2): > 100 µM (inactive)
GI50 (SK-MEL-5): 49.7 µM (inactive)
GI50 (SN12C): > 100 µM (inactive)
GI50 (SNB-19): > 100 µM (inactive)
GI50 (SNB-75): 32.8 µM (inactive)
GI50 (SR): 99.1 µM (inactive)
GI50 (SW-620): > 100 µM (inactive)
GI50 (U-251): > 100 µM (inactive)
GI50 (UACC-257): > 100 µM (inactive)
GI50 (UACC-62): 59.2 µM (inactive)
GI50 (UO-31): 62.4 µM (inactive)
